In US10596212B2, “Mangifera indica as a Sirtuin 1 activating agent” (Vital Solutions Swiss AG, priority 2014, dated 2020):

Biological target: T1, human recombinant SIRT1 (Homo sapiens, UniProt Q96EB6)
T1 construct: purchased Cayman Chemical
T1 sequence (Q96EB6 1-747): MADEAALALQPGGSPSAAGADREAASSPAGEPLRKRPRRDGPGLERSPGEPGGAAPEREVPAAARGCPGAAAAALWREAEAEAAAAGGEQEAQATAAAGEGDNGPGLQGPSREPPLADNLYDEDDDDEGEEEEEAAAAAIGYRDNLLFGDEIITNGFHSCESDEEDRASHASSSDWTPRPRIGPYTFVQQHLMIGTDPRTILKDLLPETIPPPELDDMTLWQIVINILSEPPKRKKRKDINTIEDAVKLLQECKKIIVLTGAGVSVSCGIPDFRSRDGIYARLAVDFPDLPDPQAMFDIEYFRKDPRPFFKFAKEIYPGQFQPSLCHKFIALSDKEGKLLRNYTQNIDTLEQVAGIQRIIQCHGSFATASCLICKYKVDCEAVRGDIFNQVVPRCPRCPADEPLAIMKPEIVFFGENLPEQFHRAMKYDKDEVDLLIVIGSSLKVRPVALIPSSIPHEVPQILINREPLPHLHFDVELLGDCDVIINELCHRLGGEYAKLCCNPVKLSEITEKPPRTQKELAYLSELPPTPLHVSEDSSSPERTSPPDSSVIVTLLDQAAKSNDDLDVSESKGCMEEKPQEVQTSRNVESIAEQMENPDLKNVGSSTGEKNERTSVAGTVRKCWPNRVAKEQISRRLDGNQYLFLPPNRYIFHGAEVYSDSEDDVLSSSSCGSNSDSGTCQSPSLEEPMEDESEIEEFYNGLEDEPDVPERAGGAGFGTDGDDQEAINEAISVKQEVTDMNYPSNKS
Assay: SIRT1 Direct Fluorescent Screening Assay (Cayman Chemical), SIRT1 activation
Assay type: biochemical
Details: positive control, working concentration 1 mM, final assay concentration 32.5 μg/ml
Description: The assay was performed using SIRT1 Direct Fluorescent Screening Assay kit, (Cayman Chemical). In the assay resveratrol was used as a positive comparative control in the working concentration of 1 mM, or 228 μg/ml corresponding to a final assay concentration of 32.5 μg/ml.
Cayman's SIRT1 Direct Fluorescent Screening Assay Kit is fluorescence-based method for screening SIRT1 inhibitors or activators. In the first step, the substrate is incubated with human recombinant SIRT1 along with its co-substrate NAD+. Deacetylation sensitizes the substrate such that treatment with the developer in the second step releases a fluorescent product. The fluorophore is analyzed using an excitation wavelength of 350-360 nm and an emission wavelength of 450-465 nm.
The activation is calculated as % activation=(Sample−Initial Activity)/Initial Activity*100.

activation of SIRT1: 37.5%
Compound: Oc1ccc(C=Cc2cc(O)cc(O)c2)cc1 [resveratrol]
